Legend:
ZNF337 = assay: LC-MS/MS proteome profiling; assay type: cell-based, Homo sapiens; details: SK5527 vs DMSO (24h)
Method: (§1) Analysis of the mass spectrometry data was performed in DiaNN (version 1.9). Precursor false discovery rate was set at 1%. Spectra were searched against the Homo sapiens protein sequences in the Uniprot database (database release version of 2024_01), containing 20,597 sequences (www.uniprot.org) and the imbedded protein contaminant list. Enzyme specificity was set as C-terminal to arginine and lysine, also allowing cleavage at proline bonds with a maximum of 2 missed cleavages. Variable modifications were set to oxidation of methionine residues and acetylation of protein N-termini while fixed modification was set to carbamidomethylation of cystein residues. Matching between runs was enabled. Mainly default settings were used, except for the addition of a 400-900 m/z precursor mass range filter and MS1 and MS2 mass tolerance was set to 10 and 20 ppm respectively.
(§2) Further data analysis of the results was performed with an in-house script in the R programming language.
(§3) Protein expression matrices were prepared as follows: the DIA-NN main report output table was filtered at a precursor and protein library q-value cut-off of 1 % and only proteins identified by at least one proteotypic peptide were retained. After pivoting into a wide format, iBAQ intensity columns were then added to the matrix using the DIAgui’s R package get_IBAQ function. PG MaxLFQ intensities were log2 transformed and replicate samples were grouped. Proteins with less than 3 valid values in at least one group were removed and missing values were imputed from a normal distribution centered around the detection limit (package DEP) leading to a list of 7,759 quantified proteins in the experiment, used for further data analysis. To compare protein abundance […]
(§4) 24h MK-5108 vs 24h DMSO sample groups), statistical testing for differences between two group means was performed, using the package limma. Statistical significance for differential regulation was set to a false discovery rate (FDR) of < 0.05 and |log2FC| = 2.

JMJD1C = assay: LC-MS/MS proteome profiling; assay type: cell-based, Homo sapiens; details: SK5527 vs DMSO (24h)
Method: as §1, §2, §3, §4

RSF1 = assay: LC-MS/MS proteome profiling; assay type: cell-based, Homo sapiens; details: SK5527 vs DMSO (24h)
Method: as §1, §2, §3, §4

SRSF10 = assay: LC-MS/MS proteome profiling; assay type: cell-based, Homo sapiens; details: SK5527 vs DMSO (24h)
Method: as §1, §2, §3, §4

ARHGEF18 = assay: LC-MS/MS proteome profiling; assay type: cell-based, Homo sapiens; details: SK5527 vs DMSO (24h)
Method: as §1, §2, §3, §4

TROAP = assay: LC-MS/MS proteome profiling; assay type: cell-based, Homo sapiens; details: SK5527 vs DMSO
Method: as §1, §2, §3, §4

SP2 = assay: LC-MS/MS proteome profiling; assay type: cell-based, Homo sapiens; details: SK5527 vs DMSO (24h)
Method: as §1, §2, §3, §4

PLCXD1 = assay: LC-MS/MS proteome profiling; assay type: cell-based, Homo sapiens; details: SK5527 vs DMSO (24h)
Method: as §1, §2, §3, §4

AURKA = target: T1, AURKA (Homo sapiens, UniProt O14965); assay: KINOMEscan scanMAX; assay type: binding; parameters: purchased Eurofins Discovery; details: read-out: Percent Control
T1 sequence (O14965 1-403): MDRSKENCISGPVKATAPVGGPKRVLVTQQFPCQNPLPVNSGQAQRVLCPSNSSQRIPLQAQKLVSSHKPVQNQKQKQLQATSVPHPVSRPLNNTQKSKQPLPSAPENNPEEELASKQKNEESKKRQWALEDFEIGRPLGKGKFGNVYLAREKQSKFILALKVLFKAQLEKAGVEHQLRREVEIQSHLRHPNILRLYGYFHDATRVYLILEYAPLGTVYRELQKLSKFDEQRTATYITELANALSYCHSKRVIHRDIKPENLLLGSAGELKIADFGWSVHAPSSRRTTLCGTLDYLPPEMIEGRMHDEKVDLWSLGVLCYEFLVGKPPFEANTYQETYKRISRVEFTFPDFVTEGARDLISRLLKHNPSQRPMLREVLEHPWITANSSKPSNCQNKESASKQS
Method: (§5) The kinome-wide binding assay was performed by Eurofins Discovery using the scanMAX screening platform. More information can be found on the Eurofins Discovery Web site.

403 nonmutant kinases = assay: KINOMEscan scanMAX kinome-wide binding scan, interactions mapped; details: for Interactions mapped: total = 403 non-mutant kinases, threshold < 35% of control
Method: as §5

What does the source list for Cc1cc(Nc2ccc(F)c(CC3(C(=O)N4CCC(F)(CN5CCN(c6ccc(N7CCC(=O)NC7=O)cn6)CC5)CC4)CCN(Cc4cccc(Cl)c4F)CC3)n2)n[nH]1 [SK5527]?
logFC ZNF337 (ZNF337): 2.22; logFC JMJD1C (JMJD1C): 2.49; logFC RSF1 (RSF1): 2.45; logFC SRSF10 (SRSF10): 2.01; logFC ARHGEF18 (ARHGEF18): -5.19; logFC TROAP (TROAP): 2.33; logFC SP2 (SP2): -2.23; logFC PLCXD1 (PLCXD1): -2.06; remaining binding at 0.1 µM (AURKA; 100 nM): 0.8%; remaining binding at 1 µM (AURKA; 1000 nM): 0%; kinases significantly engaged (in words) (403 nonmutant kinases; 100 nM): only AURKA and TrKA; Interactions mapped (403 nonmutant kinases; 100nM): 2; nonmutant kinases bound in addition to AURKA, out of 403 (403 nonmutant kinases; 1000 nM): 9; Interactions mapped (403 nonmutant kinases; 1000nM): 10

Reference: publication PMC12670405, “Second-Generation AURKA-Targeting PROTACs: Structural Optimization toward in Vivo Degradation in Neuroblastoma” (Journal of Medicinal Chemistry, 2025)
